Tests used:
[1] = target: Casein kinase II subunit alpha (Homo sapiens, UniProt P68400); assay: Inhibition of CSNK2A1(unknown origin) using Ser/Thr 11 as substrate incubated for 60 mins in presence of ATP by Z'-LYTE assay
[2] = target: Homeodomain-interacting protein kinase 2 (Homo sapiens, UniProt Q9H2X6); assay: Inhibition of HIPK2 (unknown origin) using Ser/Thr 09 as substrate incubated for 60 mins in presence of ATP by Z'-Lyte assay
Sequence of Homeodomain-interacting protein kinase 2 (Q9H2X6 whole entry): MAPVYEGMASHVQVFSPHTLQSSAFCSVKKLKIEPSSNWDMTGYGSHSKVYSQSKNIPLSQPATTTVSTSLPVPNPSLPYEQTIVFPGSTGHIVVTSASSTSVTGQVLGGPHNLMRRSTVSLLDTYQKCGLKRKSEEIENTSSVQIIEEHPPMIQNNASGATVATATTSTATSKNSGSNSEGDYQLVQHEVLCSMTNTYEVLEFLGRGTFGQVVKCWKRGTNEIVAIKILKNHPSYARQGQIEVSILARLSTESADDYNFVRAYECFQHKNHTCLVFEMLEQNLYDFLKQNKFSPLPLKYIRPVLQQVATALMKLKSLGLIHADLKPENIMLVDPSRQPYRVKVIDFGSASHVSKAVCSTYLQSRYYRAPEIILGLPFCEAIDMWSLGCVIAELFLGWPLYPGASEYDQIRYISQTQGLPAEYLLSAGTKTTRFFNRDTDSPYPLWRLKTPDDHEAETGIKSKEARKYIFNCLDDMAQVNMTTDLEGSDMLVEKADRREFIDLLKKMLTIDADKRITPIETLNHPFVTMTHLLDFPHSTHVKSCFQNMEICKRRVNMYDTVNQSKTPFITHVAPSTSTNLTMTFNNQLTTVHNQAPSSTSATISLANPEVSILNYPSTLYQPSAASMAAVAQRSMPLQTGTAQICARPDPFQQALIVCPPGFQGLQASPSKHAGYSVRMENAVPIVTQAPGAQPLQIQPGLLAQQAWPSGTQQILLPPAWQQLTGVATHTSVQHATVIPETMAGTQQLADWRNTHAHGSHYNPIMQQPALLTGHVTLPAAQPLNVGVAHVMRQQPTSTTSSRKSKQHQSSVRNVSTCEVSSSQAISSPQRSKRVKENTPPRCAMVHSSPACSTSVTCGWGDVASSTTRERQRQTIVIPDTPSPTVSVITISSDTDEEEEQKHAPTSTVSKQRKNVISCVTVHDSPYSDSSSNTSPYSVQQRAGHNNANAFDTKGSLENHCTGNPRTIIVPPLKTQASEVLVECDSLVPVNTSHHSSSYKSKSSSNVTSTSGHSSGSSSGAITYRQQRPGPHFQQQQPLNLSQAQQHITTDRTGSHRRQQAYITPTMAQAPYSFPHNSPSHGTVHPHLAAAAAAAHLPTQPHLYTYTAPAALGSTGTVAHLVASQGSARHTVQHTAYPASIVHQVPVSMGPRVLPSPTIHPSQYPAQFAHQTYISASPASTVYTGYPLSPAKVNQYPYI

Sequence of Casein kinase II subunit alpha (P68400 whole entry): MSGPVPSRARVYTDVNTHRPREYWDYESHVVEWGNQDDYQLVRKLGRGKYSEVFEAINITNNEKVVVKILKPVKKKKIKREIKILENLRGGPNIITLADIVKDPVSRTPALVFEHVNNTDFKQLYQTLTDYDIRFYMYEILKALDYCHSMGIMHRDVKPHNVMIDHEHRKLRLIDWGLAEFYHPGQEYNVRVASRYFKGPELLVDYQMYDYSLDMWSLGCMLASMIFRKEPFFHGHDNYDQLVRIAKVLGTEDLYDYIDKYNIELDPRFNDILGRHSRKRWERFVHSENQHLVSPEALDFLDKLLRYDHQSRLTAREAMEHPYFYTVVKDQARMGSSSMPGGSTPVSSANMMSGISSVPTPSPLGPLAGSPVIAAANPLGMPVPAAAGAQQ

SMILES | IC50 [1] | IC50 [2]
Cc1cc2cc(C(=O)O)ccc2c2cnccc12 | < 300 nM | –
O=C(O)c1ccc2c(c1)cc(NC1CCCC1)c1ccncc12 | < 300 nM | –
O=C(O)c1ccc2c(c1)cc(-c1ccncc1)c1ccncc12 | < 300 nM | –
O=C(O)c1ccc2c(c1)cc(-c1cccnc1)c1ccncc12 | < 300 nM | –
O=C(O)c1ccc2c(c1)cc(NC1CCCCC1)c1ccncc12 | < 300 nM | –
O=C(O)c1ccc2c(c1)cc(Nc1ccc(Cl)cc1)c1ccncc12 | < 300 nM | –
O=C(O)c1ccc2c(c1)cc(-c1cc[nH]n1)c1ccncc12 | < 300 nM | –
Nc1ccc(-c2cc3cc(C(=O)O)ccc3c3cnccc23)cn1 | < 300 nM | –
CC[C@@H](C)Nc1cc2cc(C(=O)O)ccc2c2cnccc12 | < 300 nM | < 300 nM
O=C(O)c1ccc2c(c1)cc(Br)c1ccnc(Cl)c12 | < 300 nM | –
O=C(O)c1ccc2c(c1)cc(N1CCCCC1)c1ccncc12 | < 300 nM | –
N[C@@H]1CCCN(c2cc3cc(C(=O)O)ccc3c3cnccc23)C1 | < 300 nM | > 5000 nM
O=C(O)c1ccc2c(c1)cc(C1CC1)c1ccncc12 | < 300 nM | –
O=C(O)c1ccc2c(c1)cc(NC1CCC1)c1ccncc12 | < 300 nM | –

Source: ChEMBL document CHEMBL4806958, “Anti-cancer/anti-fibrosis compounds” (2020)
